The source of these data is US9453026B2, “ACC inhibitors and uses thereof” (Gilead Apollo, Inc., priority 2011, dated 2016).

A word on the MIC: it is the lowest concentration that inhibits growth of the organism.

pIC50: −log10 of the molar value. Values after ≈ are worked out from the molar mass of the structure shown. Values joined by “and” are separate entries in the source; they are usually repeats but may differ in a detail not shown here. Identical values can stand only once. Like-named read-outs stand apart in the source and are kept apart here.

One experiment concerns C. albicans ATCC 90028. In words: Anti-Fungal Activity Assay (broth microtiter MIC). It counts as cell-based. The settings on record: 3 replicates, test compounds read at 48 h. The protocol: (§1) Compounds of the present invention were evaluated in an Anti-Fungal Activity Assay. An exemplary procedure for the assay, which measures the susceptibility of various Candida species to anti-fungal compounds, follows. Compounds to be tested (including fluconazole and amphotericin B) were dissolved in DMSO to obtain a solution having a concentration of 1 mg/mL. […] All species were grown from frozen stock by directly plating on to freshly prepared Sabouraud Dextrose agar (BD, Difco) and incubated overnight in ambient air at 35° C. for 24 h. A direct suspension was prepared in RPMI 1640+MOPS (Lonza, Biowhittaker) by taking individual colonies from the overnight cultures using sterile swabs soaked in sterile saline. The concentration of the suspension was determined using pre-determined standard curves. […] The original CLSI guidelines focused on reading Candida MICs after 48 h of incubation. As reading after only 24 h offers a clear advantage of patient care, QC limits are being established for all drugs at 24 h. That being said there are no known interpretive breakpoints for amphotericin B at 24 h and the current fluconazole interpretive breakpoints are based on a 48 h reading. The MIC breakpoints for the Pharmaron test compounds were recorded at 48 h, and for the soraphen the 24 h time-point was added. All MIC determinations were achieved by visually comparing the growth found in the antibiotic challenged wells to that of the growth control.

For the next experiment, the system named is C. krusei ATCC 6258. Description: Anti-Fungal Activity Assay (broth microtiter MIC). The settings on record: 3 replicates, test compounds read at 48 h. Format: cell-based. The procedure: as §1
Experiment [1] has as its system C. parapsilosis ATCC 22019. In words: Anti-Fungal Activity Assay (broth microtiter MIC). It counts as cell-based. The settings on record: 3 replicates, test compounds read at 48 h. The procedure:
as §1

For a further experiment, the target named is ACC1 (Homo sapiens, UniProt Q13085). In words: In vitro ACC1 inhibition assay (ADP-Glo). It counts as biochemical. In outline: (§2)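 Enzyme (human ACC1 or ACC2) and compound, serially diluted 1:3 over 11 points from a 600 uM DMSO stock, were preincubated 15 min before substrate addition.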
For orientation: ADP-Glo first removes unused ATP, then detects ADP through luciferase.

The next experiment concerns the target ACC2 (Homo sapiens, UniProt O00763). In words: In vitro ACC2 inhibition assay (ADP-Glo). Format: biochemical. In outline:
as §2

Setting [2] is: Candida albicans, ATCC90028, 48 h, read-out: MIC.
Setting [3] is: Pichia kudriavzevii, ATCC6258, 48 h, read-out: MIC.
[4] abbreviates: Lodderomyces parapsilosis, ATCC22019, 48 h, read-out: MIC.

Chain of ACC2 (O00763 whole entry, species assumed): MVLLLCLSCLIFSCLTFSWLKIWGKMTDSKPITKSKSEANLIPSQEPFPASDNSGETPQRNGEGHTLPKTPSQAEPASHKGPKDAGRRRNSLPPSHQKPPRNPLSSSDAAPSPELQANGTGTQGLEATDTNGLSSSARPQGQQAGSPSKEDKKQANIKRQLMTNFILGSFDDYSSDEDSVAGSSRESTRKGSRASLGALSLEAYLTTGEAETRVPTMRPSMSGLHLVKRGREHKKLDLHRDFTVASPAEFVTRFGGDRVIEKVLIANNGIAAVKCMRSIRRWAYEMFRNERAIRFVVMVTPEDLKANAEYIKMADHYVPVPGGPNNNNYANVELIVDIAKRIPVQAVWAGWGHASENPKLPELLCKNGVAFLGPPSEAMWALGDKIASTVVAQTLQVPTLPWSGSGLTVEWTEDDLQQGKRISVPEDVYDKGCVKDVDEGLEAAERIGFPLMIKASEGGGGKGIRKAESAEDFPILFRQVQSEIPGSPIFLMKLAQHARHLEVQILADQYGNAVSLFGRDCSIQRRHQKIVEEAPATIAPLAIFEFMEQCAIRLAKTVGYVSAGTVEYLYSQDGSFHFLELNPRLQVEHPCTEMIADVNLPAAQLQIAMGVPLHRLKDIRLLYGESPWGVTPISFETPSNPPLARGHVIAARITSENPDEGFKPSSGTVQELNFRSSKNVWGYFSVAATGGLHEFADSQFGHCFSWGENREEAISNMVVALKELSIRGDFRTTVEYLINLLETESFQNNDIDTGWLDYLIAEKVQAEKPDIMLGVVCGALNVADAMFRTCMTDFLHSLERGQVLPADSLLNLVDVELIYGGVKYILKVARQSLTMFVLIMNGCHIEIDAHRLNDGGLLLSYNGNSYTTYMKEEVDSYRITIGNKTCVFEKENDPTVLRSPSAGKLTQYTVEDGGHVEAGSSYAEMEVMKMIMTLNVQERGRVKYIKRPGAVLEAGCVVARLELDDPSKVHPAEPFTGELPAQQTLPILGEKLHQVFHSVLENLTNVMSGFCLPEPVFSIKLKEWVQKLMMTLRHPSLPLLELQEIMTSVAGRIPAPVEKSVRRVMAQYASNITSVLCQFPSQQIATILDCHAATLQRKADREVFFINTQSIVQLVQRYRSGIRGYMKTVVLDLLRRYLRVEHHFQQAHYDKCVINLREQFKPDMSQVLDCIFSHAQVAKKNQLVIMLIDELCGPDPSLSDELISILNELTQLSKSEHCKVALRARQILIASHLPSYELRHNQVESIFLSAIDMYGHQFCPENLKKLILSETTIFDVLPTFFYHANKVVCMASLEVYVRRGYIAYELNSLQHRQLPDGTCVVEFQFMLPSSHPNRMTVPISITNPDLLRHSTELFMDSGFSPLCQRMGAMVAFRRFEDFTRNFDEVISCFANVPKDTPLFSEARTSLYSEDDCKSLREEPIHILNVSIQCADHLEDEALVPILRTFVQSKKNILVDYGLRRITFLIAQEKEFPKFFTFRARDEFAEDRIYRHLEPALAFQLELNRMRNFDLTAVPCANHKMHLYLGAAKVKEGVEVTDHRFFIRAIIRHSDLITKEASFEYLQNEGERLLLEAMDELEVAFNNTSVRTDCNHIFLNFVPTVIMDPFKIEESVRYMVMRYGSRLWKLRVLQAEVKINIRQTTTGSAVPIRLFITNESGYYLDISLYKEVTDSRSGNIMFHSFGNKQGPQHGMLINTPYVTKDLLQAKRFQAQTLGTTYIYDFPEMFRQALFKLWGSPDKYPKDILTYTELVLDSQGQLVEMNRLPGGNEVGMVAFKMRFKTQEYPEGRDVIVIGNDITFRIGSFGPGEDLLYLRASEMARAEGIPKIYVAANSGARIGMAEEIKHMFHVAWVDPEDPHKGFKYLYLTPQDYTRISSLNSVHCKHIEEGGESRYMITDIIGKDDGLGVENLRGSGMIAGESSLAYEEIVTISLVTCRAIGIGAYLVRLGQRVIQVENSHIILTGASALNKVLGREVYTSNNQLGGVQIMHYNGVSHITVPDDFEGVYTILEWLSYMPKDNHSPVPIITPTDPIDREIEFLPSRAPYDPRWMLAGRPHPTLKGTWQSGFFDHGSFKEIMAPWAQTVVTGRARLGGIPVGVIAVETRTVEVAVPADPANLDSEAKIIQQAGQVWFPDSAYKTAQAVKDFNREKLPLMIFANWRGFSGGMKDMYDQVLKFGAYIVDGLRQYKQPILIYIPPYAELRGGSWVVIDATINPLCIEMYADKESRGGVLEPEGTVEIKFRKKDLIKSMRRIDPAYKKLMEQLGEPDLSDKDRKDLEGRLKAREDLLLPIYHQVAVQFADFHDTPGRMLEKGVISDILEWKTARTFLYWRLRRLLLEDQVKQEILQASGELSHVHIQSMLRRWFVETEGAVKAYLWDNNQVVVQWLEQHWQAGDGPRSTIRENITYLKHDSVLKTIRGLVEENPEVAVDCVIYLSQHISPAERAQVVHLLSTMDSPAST

Take `C[C@@H]1[C@H](O)[C@@H](C)/C=C/C=C/C=C/C=C/C=C/C=C/C=C/[C@H](O[C@@H]2O[C@H](C)[C@@H](O)[C@H](N)[C@@H]2O)C[C@@H]2O[C@](O)(C[C@@H](O)C[C@@H](O)[C@H](O)CC[C@@H](O)C[C@@H](O)CC(=O)O[C@H]1C)C[C@H](O)[C@H]2C(=O)O` [Amph. B, amphotericin B, reference compound]: the MIC is 0.5 ug/mL (2×) and 1 ug/mL in the experiment on C. albicans ATCC 90028; 1 µg/mL (≈ 1.08 µM) against C. krusei ATCC 6258; 1 µg/mL (≈ 1.08 µM) in experiment [1].

Regarding `Cc1c(-c2ncco2)sc2c1c(=O)n(C(C)(C)C(=O)O)c(=O)n2C[C@H](OC1CCOCC1)c1ccccc1` [I-162, 2-methyl-2-[5-methyl-1-[(2R)-2-(oxan-4-yloxy)-2-phenylethyl]-6-(1,3-oxazol-2-yl)-2,4-dioxo-1H,2H,3H,4H-thieno[2,3-d]pyrimidin-3-yl]propanoic acid], the pIC50 is > 7.00 on ACC1 (read-out: ACC1) and > 6.00 on ACC2 (read-out: ACC2). The minimal inhibitory concentration (MIC) with C. albicans ATCC 90028 was >64 µg/mL; in the experiment on C. albicans ATCC 90028 (setting [2]), > 64 µg/mL; against C. krusei ATCC 6258 it was >64 µg/mL; with C. krusei ATCC 6258 (setting [3]), > 64 µg/mL; in experiment [1], >64 µg/mL; in experiment [1] (setting [4]), > 64 µg/mL.

As to `Cc1c(-c2ncco2)sc2c1c(=O)n(C(C)(C)C(=O)O)c(=O)n2C[C@H](Oc1ccc(-n2ccnc2)cc1)c1ccccc1` [I-160, 2-[1-[(2R)-2-[4-(1H-imidazol-1-yl)phenoxy]-2-phenylethyl]-5-methyl-6-(1,3-oxazol-2-yl)-2,4-dioxo-1H,2H,3H,4H-thieno[2,3-d]pyrimidin-3-yl]-2-methylpropanoic acid], the pIC50 at ACC1 (read-out: ACC1) and at ACC2 (read-out: ACC2) was > 7.00 each time. The MIC in the experiment with C. albicans ATCC 90028 was >64 µg/mL; with C. albicans ATCC 90028 (setting [2]), > 64 µg/mL; against C. krusei ATCC 6258 it was >64 µg/mL; in the experiment with C. krusei ATCC 6258 (setting [3]) it was > 64 µg/mL; in experiment [1], >64 µg/mL; in experiment [1] (setting [4]), > 64 µg/mL.

As to `OC(Cn1cncn1)(Cn1cncn1)c1ccc(F)cc1F` [Fluc., fluconazole, reference compound], the MIC was 1 µg/mL and 2 µg/mL in the experiment with C. albicans ATCC 90028; 1 µg/mL (≈ 3.27 µM) in the experiment with C. albicans ATCC 90028 (setting [2]); 32 ug/mL (2×) and 2 ug/mL against C. krusei ATCC 6258; 2 µg/mL and 4 µg/mL in experiment [1]; 2 µg/mL (≈ 6.53 µM) in experiment [1] (setting [4]).

For the compound `Cc1c(-c2ncco2)sc2c1c(=O)n(C(C)(C)C(=O)O)c(=O)n2C[C@H](OC1CCCCC1)c1ccccc1` [I-140, 2-[1-[(2R)-2-(cyclohexyloxy)-2-phenylethyl]-5-methyl-6-(1,3-oxazol-2-yl)-2,4-dioxo-1H,2H,3H,4H-thieno[2,3-d]pyrimidin-3-yl]-2-methylpropanoic acid], the pIC50 was > 7.00 at ACC1 (read-out: ACC1) and > 6.00 on ACC2 (read-out: ACC2).

On to `Cc1ccccc1[C@H](Cn1c(=O)n(C(C)(C)C(=O)O)c(=O)c2c(C)c(-c3ncco3)sc21)OC1CCOCC1` [I-282, 2-methyl-2-[5-methyl-1-[(2R)-2-(2-methylphenyl)-2-(oxan-4-yloxy)ethyl]-6-(1,3-oxazol-2-yl)-2,4-dioxo-1H,2H,3H,4H-thieno[2,3-d]pyrimidin-3-yl]propanoic acid], for which the pIC50 on ACC1 (read-out: ACC1) and on ACC2 (read-out: ACC2) was > 7.00 in each case.

In the case of `Cc1c(-c2ncco2)sc2c1c(=O)n(C(C)(C)C(=O)O)c(=O)n2C[C@@H](OC1CCOCC1)c1ccccc1CC#N` [I-303, (S)-2-(1-(2-(2-(cyanomethyl)phenyl)-2-((tetrahydro-2H-pyran-4-yl)oxy)ethyl)-5-methyl-6-(oxazol-2-yl)-2,4-dioxo-1,2-dihydrothieno[2,3-d]pyrimidin-3(4H)-yl)-2-methylpropanoic acid], the pIC50 on ACC1 (read-out: ACC1) and on ACC2 (read-out: ACC2) was > 7.00 in each case.

For `CCOC(=O)c1sc2c(c1C)c(=O)n(CCCO)c(=O)n2CCc1ccccc1` [I-19, ethyl 3-(3-hydroxypropyl)-5-methyl-2,4-dioxo-1-(2-phenylethyl)-1H,2H,3H,4H-thieno[2,3-d]pyrimidine-6-carboxylate], the pIC50 was > 5.30 on ACC1 (read-out: ACC1) and 4.70 to 5.30 at ACC2 (read-out: ACC2).

Regarding `CCOC(=O)c1sc2c(c1C)c(=O)n(CC(N)=O)c(=O)n2CCc1ccccc1` [I-14], the pIC50 at ACC1 (read-out: ACC1) and on ACC2 (read-out: ACC2) was > 5.30 each time.

As for `CCc1ccccc1[C@H](Cn1c(=O)n(C(C)(C)C(=O)O)c(=O)c2c(C)c(-c3ncco3)sc21)OC(C)C` [I-180, 2-[1-[(2R)-2-(2-ethylphenyl)-2-(propan-2-yloxy)ethyl]-5-methyl-6-(1,3-oxazol-2-yl)-2,4-dioxo-1H,2H,3H,4H-thieno[2,3-d]pyrimidin-3-yl]-2-methylpropanoic acid], the pIC50 at ACC1 (read-out: ACC1) and at ACC2 (read-out: ACC2) was > 7.00 throughout.

On to `Cc1c(-c2ncco2)sc2c1c(=O)n(C(C)(C)C(=O)O)c(=O)n2C[C@H](O[C@H]1CC[C@@H](O)CC1)c1ccccc1OC(C)C` [I-295, 2-(1-((R)-2-(((1s,4S)-4-hydroxycyclohexyl)oxy)-2-(2-isopropoxyphenyl)ethyl)-5-methyl-6-(oxazol-2-yl)-2,4-dioxo-1,2-dihydrothieno[2,3-d]pyrimidin-3(4H)-yl)-2-methylpropanoic], for which the pIC50 at ACC1 (read-out: ACC1) and on ACC2 (read-out: ACC2) was > 7.00 in each case.

Take `CCOC(=O)c1sc2c(c1C)c(=O)n(CCO)c(=O)n2CCc1ccccc1Cl` [I-20, ethyl 1-[2-(2-chlorophenyl)ethyl]-3-(2-hydroxyethyl)-5-methyl-2,4-dioxo-1H,2H,3H,4H-thieno[2,3-d]pyrimidine-6-carboxylate]: the pIC50 was 4.70 to 5.30 at ACC1 (read-out: ACC1) and > 5.30 at ACC2 (read-out: ACC2).

As to `CCOC(=O)c1sc2c(c1C)c(=O)n(CC(=O)O)c(=O)n2CC(OC(C)C)c1ccccc1` (stereo in doubt) [I-96, (S)-2-(6-(ethoxycarbonyl)-1-(2-isopropoxy-2-phenylethyl)-5-methyl-2,4-dioxo-1,2-dihydrothieno[2,3-d]pyrimidin-3(4H)-yl)acetic acid], the values for the pIC50 on ACC1 (read-out: ACC1) and at ACC2 (read-out: ACC2) were > 7.00 and 4.70 to 5.30, respectively.

Regarding `[2H]C([2H])([2H])Oc1ccccc1[C@H](Cn1c(=O)n(C(C)(C)C(=O)O)c(=O)c2c(C)c(-c3ncco3)sc21)OC1CCOCC1` [I-271, 2-[1-[(2R)-2-[2-(d3)methoxyphenyl]-2-(oxan-4-yloxy)ethyl]-5-methyl-6-(1,3-oxazol-2-yl)-2,4-dioxo-1H,2H,3H,4H-thieno[2,3-d]pyrimidin-3-yl]-2-methylpropanoic acid], the pIC50 against ACC1 and at ACC2 was > 7.00 in each case.

Turning to `CCOC(=O)c1sc2c(c1C)c(=O)n(C(C)(C)C(=O)O)c(=O)n2CCc1ccccc1CC` [I-100, 2-[6-(ethoxycarbonyl)-1-[2-(2-ethylphenyl)ethyl]-5-methyl-2,4-dioxo-1H,2H,3H,4H-thieno[2,3-d]pyrimidin-3-yl]-2-methylpropanoic acid], the pIC50 on ACC1 (read-out: ACC1) was > 7.00; at ACC2 (read-out: ACC2) it was > 6.00.

As to `CCOC(=O)c1sc2c(c1C)c(=O)n(CC(=O)O)c(=O)n2CCc1ccccc1F` [I-32, 2-[6-(ethoxycarbonyl)-1-[2-(2-fluorophenyl)ethyl]-5-methyl-2,4-dioxo-1H,2H,3H,4H-thieno[2,3-d]pyrimidin-3-yl]acetic acid], the pIC50 at ACC1 (read-out: ACC1) and on ACC2 (read-out: ACC2) was > 5.30 in each case.

`Cc1c(-c2ncco2)sc2c1c(=O)n(C(C)(C)C(=O)O)c(=O)n2C[C@H](OC1CCOCC1)c1ccccc1COC(C)C` [I-297, 2-methyl-2-[5-methyl-1-[(2R)-2-(oxan-4-yloxy)-2-[2-[(propan-2-yloxy)methyl]phenyl]ethyl]-6-(1,3-oxazol-2-yl)-2,4-dioxo-1H,2H,3H,4H-thieno[2,3-d]pyrimidin-3-yl]propanoic acid]: the pIC50 at ACC1 (read-out: ACC1) and at ACC2 (read-out: ACC2) was > 7.00 throughout.
